The values below come from patent publication US11466019B2, “Triazolo[4,5-d] pyramidine derivatives and their use as purine receptor antagonists” (Vernalis (R&D) Limited, priority 2008, dated 2022).

As usually defined, the Ki is the equilibrium dissociation constant of an inhibitor or competing ligand from its target. As usually defined, the melting point is the temperature, or range, at which the solid turns liquid.

Series [1] concerns the target T1, human adenosine A1 receptors (Homo sapiens, UniProt P30542).
T1 construct: expressed in transfected cells; host or cells: CHO-K1
T1 sequence (P30542 1-326): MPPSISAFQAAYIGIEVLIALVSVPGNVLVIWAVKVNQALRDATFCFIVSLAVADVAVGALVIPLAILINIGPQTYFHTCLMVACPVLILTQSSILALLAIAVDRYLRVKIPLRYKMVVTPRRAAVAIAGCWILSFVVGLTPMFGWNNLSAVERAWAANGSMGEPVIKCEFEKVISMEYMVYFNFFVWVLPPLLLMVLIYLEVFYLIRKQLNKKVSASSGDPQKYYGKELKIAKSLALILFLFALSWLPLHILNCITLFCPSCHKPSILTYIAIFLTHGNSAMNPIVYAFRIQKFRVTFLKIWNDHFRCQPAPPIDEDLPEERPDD
Nature of the series: Adenosine receptor binding: binding affinities at hA1 receptors ([3H]DPCPX displacement). The following applies: Table 1; for Ki: [3H]DPCPX displacement, CHO-K1 membranes, read-out: Binding Affinity hA1-Ki; for Binding Selectivity A1/A2a: ratio of Ki values.

For series [2], the target named is T2, human adenosine A2A receptors (Homo sapiens, UniProt P29274).
T2 construct: host or cells: HEK-293
Nature of the series: Adenosine receptor binding: binding affinities at hA2A receptors ([3H]CGS-21680 displacement). The following applies: Table 1; [3H]CGS-21680 displacement, HEK-293 membranes; read-out: Binding Affinity hA2A-Ki.

Another series addresses T3, hA2B receptors (Homo sapiens, UniProt P29275).
T3 construct: host or cells: HEK-293
T3 sequence (P29275 1-332): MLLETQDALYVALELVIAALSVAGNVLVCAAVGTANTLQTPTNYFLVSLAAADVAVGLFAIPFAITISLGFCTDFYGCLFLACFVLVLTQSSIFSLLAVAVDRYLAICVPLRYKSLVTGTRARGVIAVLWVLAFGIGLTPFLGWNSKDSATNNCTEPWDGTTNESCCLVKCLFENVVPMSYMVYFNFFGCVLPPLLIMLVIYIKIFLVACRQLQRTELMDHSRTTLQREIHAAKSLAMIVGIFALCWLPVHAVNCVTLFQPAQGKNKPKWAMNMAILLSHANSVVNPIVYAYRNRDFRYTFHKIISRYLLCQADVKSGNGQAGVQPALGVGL
Nature of the series: Adenosine receptor binding: binding affinities at hA2B receptors ([3H]-ZM241385 displacement). The following applies: Table 1; for Ki: [3H]-ZM241385 displacement, HEK-293 membranes, read-out: Binding Affinity hA2B-Ki; for Binding Selectivity A2b/A2a: ratio of Ki values.

Series [3] concerns the target T4, human adenosine A3 receptors (Homo sapiens, UniProt P0DMS8).
T4 construct: expressed in transfected cells; host or cells: CHO-K1
T4 sequence (P0DMS8 1-318): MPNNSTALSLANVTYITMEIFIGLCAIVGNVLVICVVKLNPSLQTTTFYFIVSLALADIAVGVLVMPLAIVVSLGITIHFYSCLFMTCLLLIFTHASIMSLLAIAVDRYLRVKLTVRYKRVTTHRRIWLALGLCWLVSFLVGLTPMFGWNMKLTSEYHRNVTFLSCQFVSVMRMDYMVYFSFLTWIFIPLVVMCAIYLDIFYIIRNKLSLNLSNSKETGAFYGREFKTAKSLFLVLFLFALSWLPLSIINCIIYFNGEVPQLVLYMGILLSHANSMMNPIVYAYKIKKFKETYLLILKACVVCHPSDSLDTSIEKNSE
The series can be described thus: Adenosine receptor binding: binding affinities at hA3 receptors ([125I]-AB MECA displacement). The following applies: Table 1; for Ki: [125I]-AB MECA displacement, CHO-K1 membranes, read-out: Binding Affinity hA3-Ki; for Binding Selectivity A3/A2a: ratio of Ki values.

In series [4] the test system is haloperidol-induced deficits in locomotor activity in mice. Nature of the series: Haloperidol-induced hypolocomotion model (HaloLMA). In kind it is in vivo. The following applies: female TO mice, intraperitoneal, haloperidol 0.2 mg/kg. The source says: Evaluation of Potential Anti-Parkinsonian Activity In Vivo: Haloperidol-Induced Hypolocomotion Model
This approach is also considered a valid method for screening drugs with potential antiparkinsonian effects. Thus, the ability of novel adenosine antagonists to block haloperidol-induced deficits in locomotor activity in mice can be used to assess both in vivo and potential antiparkinsonian efficacy.
Female TO mice (25-30 g) are used for all experiments. Animals are housed in groups of 8 (cage size-40 cm (width) by 40 cm (length) by 20 cm (height)) under 12 hour light/dark cycle (lights on 08:00), in a temperature (20±2° C.) and humidity (55±15%) controlled environment. Animals have free access to food and water, and are allowed at least 7 days to acclimatize after delivery before experimental use.
Liquid injectable haloperidol (e.g., 1 mL Serenance ampoules from Baker Norton, Harlow, Essex, each containing haloperidol BP 5 mg) are diluted to a final concentration of 0.02 mg/mL using saline. Test compounds are typically prepared as aqueous suspensions in 8% Tween. All compounds are administered intraperitoneally in a volume of 10 mL/kg.
1.5 hours before testing, mice are administered 0.2 mg/kg haloperidol, a dose that reduces baseline locomotor activity by at least 50%. Test substances are typically administered 5-60 minutes prior to testing. The animals are then placed individually into clean, clear polycarbonate cages (20 cm (width) by 40 cm (length) by 20 cm (height), with a flat perforated, Perspex lid). Horizontal locomotor activity is determined by placing the cages within a frame containing a 3 by 6 array of photocells linked to a computer, which tabulates beam breaks. Mice are left undisturbed to explore for 1 hour, and the number of beams breaks made during this period serves as a record of locomotor activity which is compared with data for control animals for statistically significant differences.
A number of the exemplified compounds of the present invention were tested in this assay and the results obtained are shown in Table 3, below.

For the next series, the system named is cataleptic responses. The following applies: cited from earlier work.
In the next series the test system is Parkinsonian patients. The following applies: cited from earlier work.

T2 sequence (P29274 whole entry): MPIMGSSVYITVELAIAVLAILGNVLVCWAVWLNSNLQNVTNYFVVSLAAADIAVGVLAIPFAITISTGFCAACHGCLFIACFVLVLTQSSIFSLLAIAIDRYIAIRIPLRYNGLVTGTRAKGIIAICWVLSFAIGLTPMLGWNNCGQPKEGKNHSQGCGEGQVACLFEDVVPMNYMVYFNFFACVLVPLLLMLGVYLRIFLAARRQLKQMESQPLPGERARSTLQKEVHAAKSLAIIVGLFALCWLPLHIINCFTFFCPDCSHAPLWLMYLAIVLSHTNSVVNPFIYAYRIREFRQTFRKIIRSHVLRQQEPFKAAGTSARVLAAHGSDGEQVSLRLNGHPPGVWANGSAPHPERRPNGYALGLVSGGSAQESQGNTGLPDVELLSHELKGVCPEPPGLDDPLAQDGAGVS

`Cc1ccc(-c2nc(N)nc3c2nnn3Cc2cccc(COCC3CCOC3)n2)o1` (racemic) [Example 34, 7-(5-methylfuran-2-yl)-3-(6-[tetrahydrofuran-3-ylmethyl]oxymethylpyrid-2-ylmethyl)-3H-[1,2,3]triazolo[4,5-d]pyrimidin-5-amine] registered a melting point of 168.7 to 168.9 °C. Besides, in series [1], the inhibition constant (Ki) came to 164 nM and the “Binding Selectivity A1/A2a” value worked out at 40. For the same molecule, the Ki in series [2] was determined as 4.1 nM. In addition, on hA2B receptors, the Ki turned out to be 1890 nM and the “Binding Selectivity A2b/A2a” value was 457. In series [3], the inhibitory constant (Ki) is 2120 nM and the “Binding Selectivity A3/A2a” value came to 513. Further, in series [4], the “In Vivo activity HaloLMA MED” value came to 1 mg/kg.
In turn, `Cc1ccc(-c2nc(N)nc3c2nnn3Cc2cccc(COC(F)F)n2)o1` [Example 31, 7-(5-methylfuran-2-yl)-3-(6-[difluoromethyloxymethyl]-pyrid-2-ylmethyl)-3H-[1,2,3]triazolo[4,5-d]pyrimidin-5-amine] came in with a melting point of 194.8 to 195.1 °C. The “In Vivo activity HaloLMA MED” value in series [4] was 1 mg/kg.
Turning to `CCCn1c(=O)c2c(nc(/C=C/c3ccc(OC)c(OC)c3)n2C)n(CCC)c1=O` [KF 17837, E-8-(3,4dimethoxystyryl)-1,3-dipropyl-7-methylxanthine], the “anticataleptic effects of a subthreshold dose of L-DOPA plus benserazide” value with cataleptic responses (combination) is given as “potentiated the anticataleptic effects”. In the series with cataleptic responses (in vivo), the “catalepsy induced by haloperidol and reserpine” value is “reduced the catalepsy”. For the same molecule, in the series with cataleptic responses (oral administration), the “cataleptic responses induced by intracerebroventricular administration of CGS 21680” value is listed as “significantly ameliorated”.
`COCc1cccc(Cn2nnc3c(-c4nc(C)cs4)nc(N)nc32)n1` [Example 30, 7-(4-methylthiazol-2-yl)-3-(6-[methoxymethyl]pyrid-2-ylmethyl)-3H-[1,2,3]triazolo[4,5-d]pyrimidin-5-amine]: in series [1], the inhibitory constant (Ki) worked out at 799 nM and the “Binding Selectivity A1/A2a” value came to 168. For the same molecule, the inhibition constant Ki in series [2] stood at 4.8 nM. For the same molecule, at hA2B receptors, the Ki came out at 2370 nM and the “Binding Selectivity A2b/A2a” value was determined as 498. For the same molecule, in series [3], the inhibition constant (Ki) turned out to be 4600 nM and the “Binding Selectivity A3/A2a” value came out at 965. Besides, the “In Vivo activity HaloLMA MED” value in series [4] was 3 mg/kg.
In turn, `Cc1ccc(-c2nc(N)nc3c2nnn3Cc2cccc(COCC3CCCO3)n2)o1` (centres unmarked) [Example 33, 745-methylfuran-2-yl-3-(6-[tetrahydrofuran-2-ylmethyl]oxymethylpyrid-2-ylmethyl)-3H-[1,2,3]triazolo[4,5-d]pyrimidin-5-amine] displayed a melting point of 154.2 to 154.5 °C. In series [1], the inhibitory constant (Ki) came to 299 nM and the “Binding Selectivity A1/A2a” value came to 42. Besides, the Ki in series [2] was 7.2 nM. Also, at hA2B receptors, the Ki was found to be 1980 nM and the “Binding Selectivity A2b/A2a” value turned out to be 274. Further, in series [3], the Ki is 2180 nM and the “Binding Selectivity A3/A2a” value was 303. The “In Vivo activity HaloLMA MED” value in series [4] stood at 3 mg/kg.
As to `Cc1ccc(-c2nc(N)nc3c2nnn3Cc2cccc(C3(O)CCC3)n2)o1` [Example 6], in series [1], the Ki is 354 nM and the “Binding Selectivity A1/A2a” value stood at 313. Moreover, the Ki in series [2] turned out to be 1.1 nM. Also, at hA2B receptors, the inhibition constant (Ki) came out at 1370 nM and the “Binding Selectivity A2b/A2a” value was found to be 1216. In series [3], the inhibition constant (Ki) amounted to 1500 nM and the “Binding Selectivity A3/A2a” value is listed as 1326. Also, the “In Vivo activity HaloLMA MED” value in series [4] was 1 mg/kg.
For `Cc1ccc(-c2nc(N)nc3c2nnn3Cc2cccc(C3(O)CCOCC3)n2)o1` [Example 5, 7-(5-methylfuran-2-yl)-3-(6-[4-hydroxyetrahydropyran-4-yl]pyrid-2-ylmethyl)-3H-[1,2,3]triazolo[4,5-d]pyrimidin-5-amine], the results for the inhibition constant Ki (in series [1]; in series [2]; on hA2B receptors) were 853 nM, 4.3 nM and 4200 nM, respectively. Further, the “Binding Selectivity A1/A2a” value in series [1] is recorded as 199. The “Binding Selectivity A2b/A2a” value at hA2B receptors was found to be 980. The “Binding Selectivity A3/A2a” value in series [3] was 1989. Moreover, the “In Vivo activity HaloLMA MED” value in series [4] was found to be 3 mg/kg.
On to `Cn1c(=O)c2[nH]cnc2n(C)c1=O` [theophylline, 1,3-dimethylxanthine], for which the “mean objective disability scores” value in the series on Parkinsonian patients (15 Parkinsonian patients, treated for up to 12 weeks) is “significant improvements”. For the same molecule, the “patients who reported moderate or marked subjective improvement” value in the series with Parkinsonian patients (of 15 Parkinsonian patients, treated for up to 12 weeks) is reported as 11. In the series on Parkinsonian patients (slow release oral theophylline preparation, after one week, Parkinsonian patients), the serum theophylline levels was 4.44 mg/L.
Regarding `Cc1ccc(-c2nc(N)nc3c2nnn3Cc2cccc(C3(O)CCCCC3)n2)o1` [Example 4, 7-(5-methylfuran-2-yl)-3-(6-[1-hydroxy-1-cyclohexyl]pyrid-2-ylmethyl)-3H-[1,2,3]triazolo[4,5-d]pyrimidin-5-amine], the Ki in series [1] was determined as 196 nM; in series [2], 3.1 nM; on hA2B receptors it was 1130 nM; in series [3] it was 1640 nM. Also, the “Binding Selectivity A1/A2a” value in series [1] amounted to 63. Also, the “Binding Selectivity A2b/A2a” value on hA2B receptors is 366. Besides, in series [3], the “Binding Selectivity A3/A2a” value amounted to 528. Also, the “In Vivo activity HaloLMA MED” value in series [4] is listed as 3 mg/kg.
On to `Cc1ccc(-c2nc(N)nc3c2nnn3Cc2cccc(COCC(F)(F)F)n2)o1` [Example 37, 7-(5-methylfuran-2-yl)-3-(6-[2,2,2-trifluoroethyl]oxymethylpyrid-2-ylmethyl)-3H-[1,2,3]triazolo[4,5-d]pyrimidin-5-amine], for which, in series [1], the Ki amounted to 231 nM and the “Binding Selectivity A1/A2a” value is 52. Besides, in series [2], the Ki was 4.4 nM. Moreover, at hA2B receptors, the Ki was determined as 2380 nM and the “Binding Selectivity A2b/A2a” value was found to be 536. Also, in series [3], the inhibitory constant (Ki) worked out at 2490 nM and the “Binding Selectivity A3/A2a” value worked out at 560. In series [4], the “In Vivo activity HaloLMA MED” value is on record as 1 mg/kg.
